14 compounds from patent US6046329A, “Uracil derivatives” (Byk Gulden Lomberg Chemische Fabrik GmbH, priority 1994, dated 2000) can be followed below.

The structures appear in SMILES notation.

One assay addresses T1, α1A receptor (Rattus norvegicus, UniProt P43140).
T1 construct: membranes from rat brain cortex; from tissue; host or cells: rat brain cortex membranes
T1 sequence (P43140 1-466): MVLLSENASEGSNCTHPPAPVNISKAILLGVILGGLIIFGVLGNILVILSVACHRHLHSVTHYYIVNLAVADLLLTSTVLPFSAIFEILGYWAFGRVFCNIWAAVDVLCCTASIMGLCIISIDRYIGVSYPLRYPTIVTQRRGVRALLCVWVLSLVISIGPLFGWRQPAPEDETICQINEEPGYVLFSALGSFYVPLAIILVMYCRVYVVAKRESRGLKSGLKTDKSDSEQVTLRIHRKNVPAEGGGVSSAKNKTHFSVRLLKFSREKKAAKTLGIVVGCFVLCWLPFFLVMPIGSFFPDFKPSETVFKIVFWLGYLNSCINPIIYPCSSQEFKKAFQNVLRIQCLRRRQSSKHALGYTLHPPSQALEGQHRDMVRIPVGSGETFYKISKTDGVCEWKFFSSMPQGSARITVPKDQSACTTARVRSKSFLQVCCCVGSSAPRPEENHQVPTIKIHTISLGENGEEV
Nature of the assay: Radioligand binding with [3H]prazosine, affinity for α1A receptor subtype. To be noted: membranes from rat brain cortex, IC50 corrected according to Cheng and Prusoff; for Ki: read-out: Receptor affinity α1A, expressed in pKI values (converted). The procedure:
(§1) The affinity of substances for α1 receptor subtypes was determined in radioligand binding studies using [^3 H]prazosine as a radioligand. 50-200 μg of membranes from rat brain cortex were incubated in a total volume of 0.5-1 ml with [^3 H]prazosine (0.2 to 0.5 nmol/l) in the presence of rising concentrations of substances. The incubation buffer used was 50 mmol/l tris/HCl pH 7.5, 1 mmol/l EDTA, 0.1 mmol/l PMSF. The nonspecific binding was determined in separate batches in the presence of 10 μmol/l of phentolamine or 1 μmol/l of prazosine. After 1 h at 37° C., the bound radioactivity was separated from the free radioactivity by rapid filtration of the incubation batch at 0° C. through glass fiber filters. The filters were washed twice with 3.5 ml each of cold filtration buffer (50 mmol/l tris/HCl pH 7.4, 10 mmol/l MgCl2, 10% polyethylene glycol 6000). The filter-bound radioactivity was determined by liquid scintillation counting. Substances with subtype selectivity for the α1 receptor subtypes were tested again in the presence of 3 nmol/l of WB 4101. WB4101 blocks the binding of [^3 H]prazosine to the α1A receptor subtype and the remaining binding corresponds to that to the α1B receptor.
(§2) For each substance, dose-response curves were plotted by means of nonlinear regression using the Inplot program (GraphPad, Sorento, Calif., USA). IC50 values were corrected by the concentration of the radioligand employed according to the formula of Cheng and Prusoff. The resulting KI values (see following table) represent the affinity of the respective substance for the tested receptor. The compounds according to the invention investigated according to the model illustrated in greater detail above have been provided in the following table with numbers which correspond to the numbers of these compounds in the examples.

In a further assay the target is T2, α1B receptor (Rattus norvegicus, UniProt P15823).
T2 construct: membranes from rat brain cortex; from tissue; host or cells: rat brain cortex membranes
T2 sequence (P15823 1-515): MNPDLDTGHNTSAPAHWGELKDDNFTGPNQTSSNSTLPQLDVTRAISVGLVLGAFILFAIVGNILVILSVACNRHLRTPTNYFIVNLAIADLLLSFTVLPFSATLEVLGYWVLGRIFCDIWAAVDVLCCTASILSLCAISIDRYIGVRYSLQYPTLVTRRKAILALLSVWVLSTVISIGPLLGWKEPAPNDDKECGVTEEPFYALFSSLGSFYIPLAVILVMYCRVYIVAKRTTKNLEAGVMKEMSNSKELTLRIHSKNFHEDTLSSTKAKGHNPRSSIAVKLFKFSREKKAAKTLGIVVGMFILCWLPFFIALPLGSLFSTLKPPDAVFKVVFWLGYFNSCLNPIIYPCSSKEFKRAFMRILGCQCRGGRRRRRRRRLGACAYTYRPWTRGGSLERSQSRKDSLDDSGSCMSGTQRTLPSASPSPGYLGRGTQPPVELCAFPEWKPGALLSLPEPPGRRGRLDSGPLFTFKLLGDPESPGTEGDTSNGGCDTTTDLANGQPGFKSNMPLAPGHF
Briefly: Radioligand binding with [3H]prazosine (in the presence of WB 4101), affinity for α1B receptor subtype. The following applies: membranes from rat brain cortex, subtype-selective substances tested again in the presence of 3 nmol/l WB 4101, Cheng and Prusoff; for Ki: read-out: Receptor affinity α1B, expressed in pKI values (converted). The procedure:
as §1, §2

The target of the next assay is T3, 5-HT1A receptor (Sus scrofa, UniProt A0A4X1UTF5).
T3 construct: membranes from pig brain cortex; from tissue; host or cells: pig brain cortex membranes
T3 sequence (A0A4X1UTF5 1-422): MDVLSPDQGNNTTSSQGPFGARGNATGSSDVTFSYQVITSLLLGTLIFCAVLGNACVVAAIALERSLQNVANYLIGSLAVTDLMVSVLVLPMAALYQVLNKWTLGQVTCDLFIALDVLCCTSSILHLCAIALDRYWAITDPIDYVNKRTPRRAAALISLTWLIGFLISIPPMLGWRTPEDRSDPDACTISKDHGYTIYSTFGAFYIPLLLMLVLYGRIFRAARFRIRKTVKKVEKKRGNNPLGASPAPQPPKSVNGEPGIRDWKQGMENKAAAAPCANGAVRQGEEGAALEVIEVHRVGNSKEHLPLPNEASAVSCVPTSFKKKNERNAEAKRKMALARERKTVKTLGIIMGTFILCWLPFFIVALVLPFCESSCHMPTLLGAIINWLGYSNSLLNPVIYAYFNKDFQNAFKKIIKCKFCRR
Briefly: Radioligand binding with [3H]8-OH-DPAT, affinity for 5-HT1A receptor. To be noted: membranes from pig brain cortex, IC50 corrected according to Cheng and Prusoff; for Ki: read-out: Receptor affinity 5-HT1A, expressed in pKI values (converted). The procedure: The affinity of substances for the 5-HT1A receptor was determined in radioligand binding studies using [^3 H]8-OH-DPAT as a radioligand. 50-150 μg of membranes from pig brain cortex were incubated in a total volume of 0.25-0.5 ml with [^3 H]8-OH-DPAT (0.2 to 0.4 nmol/l) in the presence of rising concentrations of substances. The incubation buffer used was 50 mmol/l tris/HCl pH 8.2, 1 mmol/l MnCl2. The nonspecific binding was determined in separate batches in the presence of 10 μmol/l of 5-HT. After 30 min at 23° C., the bound radioactivity was separated from the free radioactivity by rapid filtration of the incubation batch at 0° C. through glass fiber filters. The filters were washed twice with 3.5 ml each of cold filtration buffer (50 mmol/l tris/HCl pH 7.4, 10 mmol/l MgCl2, 10% polyethylene glycol 6000). The filter-bound radioactivity was determined by liquid scintillation counting.
as §2

With `COc1cc(Br)c(Br)cc1N1CCN(CCCNc2c(C)c(=O)n(C)c(=O)n2C)CC1` [Compound 1, 1,3,5-Trimethyl-6-[[3-[4-(3,4-dibromo-6-methoxy-phenyl)-1-piperazinyl]propyl]amino]-2,4(1H,3H)-pyrimidinedione], the Ki is 5.01 nM on α1A receptor, 5.01 nM at α1B receptor and 1.26 nM on 5-HT1A receptor.
In the case of `COc1ccccc1N1CCN(CCCNc2c(Cc3c(NCCCN4CCN(c5ccccc5OC)CC4)n(C)c(=O)n(C)c3=O)c(=O)n(C)c(=O)n2C)CC1` [Compound 2], the Ki was 0.398 nM at α1A receptor, 0.398 nM at α1B receptor and 12.6 nM at 5-HT1A receptor.
As to `CCOc1ccccc1N1CCN(CCCNc2c(CCC#N)c(=O)n(C)c(=O)n2C)CC1` [Compound 3, 5-Cyanoethyl-1,3-dimethyl-6-[[3-[4-(2-ethoxyphenyl)-1-piperazinyl]propyl]amino]-2,4(1H,3H)-pyrimidinedione], the Ki at α1A receptor is 0.501 nM; on α1B receptor it was 63.1 nM; at 5-HT1A receptor, 0.398 nM.
For `CCOc1cc(F)ccc1N1CCN(CCCNc2c(Cc3c(NCCCN4CCN(c5ccc(F)cc5OCC)CC4)n(C)c(=O)n(C)c3=O)c(=O)n(C)c(=O)n2C)CC1` [Compound 4, Bis[1,3-dimethyl-6-[[3-[4-(2-ethoxy-4-fluorophenyl)-1-piperazinyl]propyl]amino]-2,4(1H,3H)-pyrimidinedione-5,5'-yl]methane], in that order: 1 nM, 1 nM and 39.8 nM.
As to `COc1ccccc1N1CCN(CCCNC(=O)c2cc(=O)n(C)c(=O)n2C)CC1` [Compound 5, 1,3-Dimethyl-2,4(1H,3H)-pyrimidinedione-6-carboxylic acid [[3-[4-(2-methoxyphenyl)-1-piperazinyl]propyl]amide]], the Ki on α1A receptor is 5.01 nM; at α1B receptor, 251 nM; at 5-HT1A receptor, 2.51 nM.
As to `Cc1c(NCCCN2CCN(c3ccccc3OC(F)(F)C(F)F)CC2)n(C)c(=O)n(C)c1=O` [Compound 6, 1,3,5-Trimethyl-6-[[3-[4-(2-tetrafluoro-ethoxyphenyl)-1-piperazinyl]-propyl]amino]-2,4(1H,3H)-pyrimidinedione], the “Receptor affinity α1A, expressed in pKI values” (shortened to “Receptor affinity α1A, expressed”) on α1A receptor amounted to 9.4. Besides, the “Receptor affinity α1B, expressed in pKI values” (from here on “Receptor affinity α1B, expressed”) on α1B receptor was determined as 7.5. Also, the “Receptor affinity 5-HT1A, expressed in pKI values” (“Receptor affinity 5-HT1A” for short) at 5-HT1A receptor amounted to 9.7.
Regarding `C=CCc1c(NCCCN2CCN(c3ccc(F)cc3OCC)CC2)n(C)c(=O)n(C)c1=O` [Compound 7, 5-Allyl-1,3-dimethyl-6-[[3-[4-(2-ethoxy-4-fluorophenyl)-1-piperazinyl]propyl]amino]-2,4(1H,3H)-pyrimidinedione], the Ki on α1A receptor is 0.631 nM; at α1B receptor, 39.8 nM; on 5-HT1A receptor, 0.794 nM.
On to `Cn1c(NCCCN2CCN(c3ccccc3OC(F)(F)C(F)F)CC2)c(CCC#N)c(=O)n(C)c1=O` [Compound 8], for which the “Receptor affinity α1A, expressed” value at α1A receptor is recorded as 9.2. Also, the “Receptor affinity α1B, expressed” value at α1B receptor is on record as 7.5. Moreover, the “Receptor affinity 5-HT1A” value on 5-HT1A receptor was 10.0.
In the case of `Cc1c(NCCCN2CCN(c3cccc4c3OCC(CO)O4)CC2)n(C)c(=O)n(C)c1=O` (stereo not drawn) [Compound 9, 1,3,5-Trimethyl-6-[[3-[4-((2,3-dihydro-2-hydroxymethyl)-1,4-benzodioxin-5-yl)-1-piperazinyl]propyl]amino]-2,4(1H,3H)-pyrimidinedione], the Ki was 2 nM on α1A receptor, 1580 nM on α1B receptor and 0.2 nM at 5-HT1A receptor.
For `Cn1c(NCCCN2CCN(c3cccc4c3OCC(CO)O4)CC2)c(Cc2c(NCCCN3CCN(c4cccc5c4OCC(CO)O5)CC3)n(C)c(=O)n(C)c2=O)c(=O)n(C)c1=O` (stereo not drawn) [Compound 10, Bis[1,3-dimethyl-6-[[3-[4-((2,3-dihydro-2-hydroxymethyl)-1,4-benzodioxin-5-yl)-1-piperazinyl]propyl]amino]-2,4(1H,3H)-pyrimidinedione-5,5'-yl]methane], in that order: 7.94 nM, 7.94 nM and 0.501 nM.
As for `C=CCc1c(NCCCN2CCN(c3ccccc3OC(F)(F)C(F)F)CC2)n(C)c(=O)n(C)c1=O` [Compound 11, 5-Allyl-1,3-dimethyl-6-[[3-[4-(2-tetrafluoro-ethoxyphenyl)-1-piperazinyl]propyl]amino]-2,4(1H,3H)-pyrimidinedione], the “Receptor affinity α1A, expressed” value at α1A receptor was 9.6. Further, the “Receptor affinity α1B, expressed” value at α1B receptor is given as 7.9. On 5-HT1A receptor, the “Receptor affinity 5-HT1A” value is given as 9.3.
In the case of `CCOC(=O)c1c(NCCCN2CCN(c3ccccc3OC)CC2)n(C)c(=O)n(C)c1=O` [Compound 12, 1,3-Dimethyl-5-ethoxycarbonyl-6-[[3-[4-(2-methoxyhenyl)-1-piperazinyl]propyl]amino]-2,4(1H,3H)-pyrimidinedione], the values for the Ki at α1A receptor, on α1B receptor and on 5-HT1A receptor were 25.1 nM, 25.1 nM and 6.31 nM, respectively.
Consider `Cc1c(NCCCN2CCN(c3ccccc3O)CC2)n(C)c(=O)n(C)c1=O` [Compound 13, 1,3,5-Trimethyl-6-[[3-[4-(2-hydroxyphenyl)-1-piperazinyl]propyl]amino]-2,4(1H,3H)-pyrimidinedione], for which the Ki is 20 nM on α1A receptor, 20 nM at α1B receptor and 0.251 nM on 5-HT1A receptor.
In the case of `COc1cc([N+](=O)[O-])ccc1N1CCN(CCCNc2c(C)c(=O)n(C)c(=O)n2C)CC1` [Compound 14, 1,3,5-Trimethyl-6-[[3-[4-(2-methoxy-4-nitrophenyl)-1-piperazinyl]propyl]amino]-2,4(1H,3H)-pyrimidinedione], the Ki on α1A receptor is 251 nM; at α1B receptor, 251 nM; at 5-HT1A receptor it was 200 nM.
